In ChEMBL document CHEMBL5244229, “Thiazole-containing compounds as therapeutic targets for cancer therapy” (Eur J Med Chem, 2020):

Assays:
HepG2 [1] = assay: Antiproliferative activity against human HepG2 cells assessed as reduction in cell viability; assay type: functional, cell-based
HeLa = assay: Antiproliferative activity against human HeLa cells assessed as reduction in cell viability; assay type: functional, cell-based
Hs-578T = assay: Antiproliferative activity against human Hs-578T cells assessed as reduction in cell viability; assay type: functional, cell-based
[2] = Anticancer activity against human LNCaP/AR cells; assay type: functional, cell-based
HepG2 [3] = assay: Cytotoxicity against human HepG2 cells assessed as reduction in cell viability at 200 uM incubated for 48 hrs by MTT assay; assay type: functional
HepG2 [4] = assay: Cytotoxicity against human HepG2 cells assessed as reduction in cell viability at 200 uM incubated for 24 hrs by MTT assay; assay type: functional, cell-based; details: HepG2, 24 h

CNc1nc(CC(=O)N/N=C/c2coc3ccccc3c2=O)cs1
IC50 (HepG2 [1]): 5.08 µM
IC50 (HeLa): 0.823 µM
IC50 (Hs-578T): 4.95 µM

CC(=O)c1cccc(-c2csc(N3CCOCC3)n2)c1
IC50 [2]: 0.38 µM

CC1CCN(c2nc(-c3ccc4ccccc4c3)cs2)CC1
Activity (HepG2 [3]): 57%

c1ccc2cc(-c3csc(N4CCCC4)n3)ccc2c1
IC50 (HepG2 [4]): 5 µM
